According to ChEMBL document CHEMBL4613261, “Metabolic and Pharmaceutical Aspects of Fluorinated Compounds” (J Med Chem, 2020):
≈ marks a conversion by molar mass, not a printed value. Where “and” joins values, the source holds several entries; their conditions need not be identical. Equal entries are not always repeated.

How the values were obtained:
[1] = Drug metabolism in Sprague-Dawley rat heart assessed as fluoro-acetic acid metabolite level at 100 mg/kg, po measured after 2 to 8 hrs; type: ADME, organism-based; details: in vivo
[2] = Drug metabolism in Sprague-Dawley rat liver assessed as fluoro-acetic acid metabolite level at 100 mg/kg, po measured after 2 to 8 hrs; type: ADME, organism-based; details: in vivo
[3] = Drug metabolism in Sprague-Dawley rat kidney assessed as fluoro-acetic acid metabolite level at 100 mg/kg, po measured after 2 to 8 hrs; type: ADME, organism-based; details: in vivo
[4] = Apparent half life in rat blood; type: ADME, tissue-based
[5] = Apparent half life in rat brain; type: ADME, tissue-based
Adenosine deaminase [6] = biological target: T1, Adenosine deaminase (Rattus norvegicus, UniProt Q920P6); assay: Prodrug conversion in rat blood assessed as rate of adenosine deaminase-mediated didanosine formation by HPLC analysis; type: ADME, tissue-based
T1 sequence (Q920P6 whole entry): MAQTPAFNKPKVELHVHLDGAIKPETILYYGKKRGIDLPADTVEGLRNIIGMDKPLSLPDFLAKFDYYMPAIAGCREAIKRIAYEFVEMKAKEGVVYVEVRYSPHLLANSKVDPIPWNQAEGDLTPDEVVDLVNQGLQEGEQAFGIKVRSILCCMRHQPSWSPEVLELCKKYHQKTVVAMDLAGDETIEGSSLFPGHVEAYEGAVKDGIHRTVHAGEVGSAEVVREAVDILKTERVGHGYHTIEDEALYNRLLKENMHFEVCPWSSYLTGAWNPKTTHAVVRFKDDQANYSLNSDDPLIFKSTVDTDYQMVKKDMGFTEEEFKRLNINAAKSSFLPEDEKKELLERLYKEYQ

[7] = Prodrug conversion in rat blood assessed as rate of didanosine formation by HPLC analysis; type: ADME, tissue-based
[8] = Prodrug conversion in rat blood assessed as total fraction of didanosine formation by HPLC analysis; type: ADME, tissue-based
Adenosine deaminase [9] = biological target: T1, Adenosine deaminase; assay: Prodrug conversion in rat brain assessed as rate of adenosine deaminase-mediated didanosine formation by HPLC analysis; type: ADME, tissue-based; details: in vivo
[10] = Prodrug conversion in rat brain assessed as rate of didanosine formation by HPLC analysis; type: ADME, tissue-based; details: in vivo
[11] = Prodrug conversion in rat brain assessed as total fraction of didanosine formation by HPLC analysis; type: ADME, tissue-based; details: in vivo
[12] = Solubility of the compound in aqueous buffer at pH 6.5; type: physicochemical
[13] = Clearance in human liver microsomes assessed per mg protein; type: ADME, Microsome
[14] = biological target: Alanine racemase, biosynthetic (Escherichia coli K-12, UniProt P0A6B4); assay: Substrate activity at Escherichia coli B alanine racemase assessed as partition ratio by measuring ratio of turnover rate to inactivation rate
Sequence of Alanine racemase, biosynthetic (P0A6B4 whole entry): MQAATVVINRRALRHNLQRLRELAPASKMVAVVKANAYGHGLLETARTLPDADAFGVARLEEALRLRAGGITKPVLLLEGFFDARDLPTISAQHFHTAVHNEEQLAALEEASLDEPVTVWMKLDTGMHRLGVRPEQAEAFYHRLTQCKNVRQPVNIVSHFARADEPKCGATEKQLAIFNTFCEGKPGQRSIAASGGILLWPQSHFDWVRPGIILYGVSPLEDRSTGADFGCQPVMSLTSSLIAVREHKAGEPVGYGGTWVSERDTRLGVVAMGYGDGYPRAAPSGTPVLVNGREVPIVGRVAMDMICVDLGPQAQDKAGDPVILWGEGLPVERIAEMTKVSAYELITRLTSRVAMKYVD

[15] = biological target: T2, MGST1 (microsomal glutathione S-transferase 1) (Rattus norvegicus, UniProt P08011); assay: Substrate activity at MGST1 in rat liver microsomes assessed as substrate depletion at 50 uM incubated for 30 mins in presence of GSH by liquid chromatography/mass spectrometry; type: ADME; details: read-out: Activity
T2 sequence (P08011 whole entry): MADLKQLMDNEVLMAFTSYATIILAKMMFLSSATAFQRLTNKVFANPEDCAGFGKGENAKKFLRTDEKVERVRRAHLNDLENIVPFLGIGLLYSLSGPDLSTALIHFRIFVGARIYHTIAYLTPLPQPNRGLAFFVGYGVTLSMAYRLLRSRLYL

Lysine decarboxylase = biological target: T3, Lysine decarboxylase (Hafnia alvei, UniProt P05033); assay: Time dependent inhibition of Hafnia alvei lysine decarboxylase using L-lysine by Kitz-Wilson analysis
T3 sequence (P05033 whole entry): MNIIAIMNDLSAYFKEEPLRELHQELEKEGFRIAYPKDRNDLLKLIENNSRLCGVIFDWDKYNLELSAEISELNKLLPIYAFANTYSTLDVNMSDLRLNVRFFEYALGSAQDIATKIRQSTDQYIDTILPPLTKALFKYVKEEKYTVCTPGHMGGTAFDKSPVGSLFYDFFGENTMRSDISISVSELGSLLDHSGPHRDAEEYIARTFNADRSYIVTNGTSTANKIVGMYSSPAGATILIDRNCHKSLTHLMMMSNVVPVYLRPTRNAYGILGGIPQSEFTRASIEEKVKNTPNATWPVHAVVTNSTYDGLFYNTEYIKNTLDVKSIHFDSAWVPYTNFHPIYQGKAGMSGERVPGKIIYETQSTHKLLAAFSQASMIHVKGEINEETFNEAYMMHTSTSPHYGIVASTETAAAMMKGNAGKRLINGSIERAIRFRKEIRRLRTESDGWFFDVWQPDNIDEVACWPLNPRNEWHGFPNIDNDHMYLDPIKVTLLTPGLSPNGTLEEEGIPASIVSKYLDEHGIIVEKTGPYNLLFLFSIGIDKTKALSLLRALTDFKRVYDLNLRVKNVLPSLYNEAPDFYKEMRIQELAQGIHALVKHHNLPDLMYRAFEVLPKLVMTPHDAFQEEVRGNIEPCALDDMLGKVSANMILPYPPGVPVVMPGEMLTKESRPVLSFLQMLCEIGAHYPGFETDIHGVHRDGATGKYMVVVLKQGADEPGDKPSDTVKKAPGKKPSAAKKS

[16] = Lipophilicity, log P of the compound; details: octanol/water
[17] = Aqueous solubility of the compound in pH 6.8 buffer
[18] = Intrinsic clearance in human liver microsome; type: ADME; details: liver microsomes, read-out: CLH
[19] = Protein binding in human plasma
[20] = biological target: T4, Microsomal glutathione S-transferase 1 (Rattus norvegicus, UniProt P08011); assay: Substrate activity at MGST1 in rat liver microsomes assessed as reactivity rate at 50 uM incubated for 1 to 40 mins in presence of GSH by liquid chromatography/mass spectrometry
T4 sequence (P08011 whole entry): T2 sequence (P08011 whole entry)

[21] = Acute toxicity in rat measured after 4 hrs; details: in vivo
[22] = Lipophilicity, log P of the compound by C18 reverse phase HPLC; type: physicochemical
[23] = Substrate activity at GSTZ (unknown origin) assessed as rate of drug conversion to S-(carboxymethyl)-glutathione per mg of protein; type: ADME; details: human
[24] = Half life in human hepatocytes; type: ADME, cell-based, Hepatocyte
[25] = Half life in rat; type: ADME; details: in vivo
[26] = Half life in dog; type: ADME, Canis lupus familiaris; details: in vivo
[27] = Substrate activity at cytochrome p450 in phenobarbital-induced rat liver microsomes assessed as cytochrome p450-mediated-deethoxylation per mg of protein; type: ADME
[28] = Drug recovery in rat excreta assessed as metabolically unchanged parent compound at 100 mg/kg, po; type: ADME, organism-based; details: read-out: Drug recovery
[29] = Toxicity in dog; design: species or system Canis lupus familiaris; details: in vivo
[30] = Substrate activity at recombinant human GSTZ1C expressed in Escherichia coli M15 assessed as rate of catalysis per mg of protein; type: ADME
[31] = biological target: T5, Maleylacetoacetate isomerase (Rattus norvegicus, UniProt P57113); assay: Substrate activity at GSTZ1 in rat liver cytosol assessed as defluorination activity; type: ADME, subcellular
T5 sequence (P57113 whole entry): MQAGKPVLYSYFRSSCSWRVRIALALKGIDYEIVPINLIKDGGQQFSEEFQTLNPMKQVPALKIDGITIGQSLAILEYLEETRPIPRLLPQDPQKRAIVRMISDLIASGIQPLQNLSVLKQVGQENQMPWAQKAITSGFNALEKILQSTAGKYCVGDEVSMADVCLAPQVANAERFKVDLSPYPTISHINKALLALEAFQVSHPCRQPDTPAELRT

[32] = Drug elimination in human; type: ADME; details: read-out: Drug excretion
Adenosylhomocysteinase = biological target: T6, Adenosylhomocysteinase (Rattus norvegicus, UniProt P10760); assay: Reversible inhibition of rat liver S- adenosyl-L-homocysteine hydrolase using SAH as substrate by spectrophotometric method
T6 sequence (P10760 whole entry): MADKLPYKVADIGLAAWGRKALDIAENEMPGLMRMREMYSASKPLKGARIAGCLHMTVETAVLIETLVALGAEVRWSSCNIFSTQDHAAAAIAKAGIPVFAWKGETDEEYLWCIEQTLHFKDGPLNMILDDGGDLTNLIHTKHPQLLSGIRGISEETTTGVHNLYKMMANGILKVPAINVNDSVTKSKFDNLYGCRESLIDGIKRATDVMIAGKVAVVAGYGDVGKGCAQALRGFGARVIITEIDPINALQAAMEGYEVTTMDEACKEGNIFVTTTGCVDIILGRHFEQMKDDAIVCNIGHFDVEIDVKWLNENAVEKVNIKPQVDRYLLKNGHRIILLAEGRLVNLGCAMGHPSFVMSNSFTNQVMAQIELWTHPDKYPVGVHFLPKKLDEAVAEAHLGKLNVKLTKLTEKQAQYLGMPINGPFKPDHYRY

[33] = Toxicity in Wistar rat measured for 6 days; details: in vivo, 144 h

## C[C@H](NC(=O)[C@H](Cc1ccccc1)NC(=O)OCc1ccccc1)C(=O)CF
[1]
  Drug metabolism: 0.2 to 0.9 µg/g
[2]
  Drug metabolism: 0.2 to 0.9 µg/g
[3]
  Drug metabolism: 0.2 to 0.9 µg/g

## OC[C@@H]1CC[C@H](n2cnc3c(F)ncnc32)O1
[4]
  half-life: 0.0583 h
[5]
  half-life: 0.00767 h
Adenosine deaminase [6]
  K: 0.15 min⁻¹
[7]
  K: 0.13 min⁻¹
[8]
  Fm: 0.54
Adenosine deaminase [9]
  K: 1.51 min⁻¹
[10]
  K: 0 min⁻¹
[11]
  Fm: 1

## OC[C@@H]1CC[C@H](n2cnc3c(Cl)ncnc32)O1
[4]
  half-life: 4.5 h
[5]
  half-life: 0.317 h
Adenosine deaminase [6]
  K: 3 ×10⁻³ /min
[7]
  K: 7.4 ×10⁻³ /min
[8]
  Fm: 0.28
Adenosine deaminase [9]
  K: 0.032 min⁻¹
[10]
  K: 0 min⁻¹
[11]
  Fm: 1

## FCC(F)Cc1c[nH]c2ccccc12 (stereo unspecified)
[12]
  solubility: > 1720 µM
[13]
  CLH: 212 min⁻¹ µL⁻¹

## N[C@@H](CF)C(=O)O
[14]
  Ratio: 790

## Clc1cccnc1Cl
[15]
  metabolised at 0.5 h, 50 µM: 26%

## N[C@H](C(=O)O)C(F)F
[14]
  Ratio: 5000

## Oc1cccnc1Cl
[15]
  metabolised at 0.5 h, 50 µM: < 5%

## OC[C@@H]1CC[C@H](n2cnc3c(Br)ncnc32)O1
[4]
  half-life: 4.67 h
[5]
  half-life: 0.333 h

## Nc1cccnc1Cl
[15]
  metabolised at 0.5 h, 50 µM: < 5%

## N[C@@H](C(=O)O)C(F)F
[14]
  Ratio: 2600

## C=C(F)[C@](N)(CCCCN)C(=O)O
Lysine decarboxylase
  Ki: 630 µM

## O=[N+]([O-])c1cn2c(n1)OC[C@@H](OCc1ccc(SC(F)(F)F)cc1)C2
[16]
  logP: 2.7
[17]; pH 6.8 buffer
  solubility: 5 µM (≈ 1.88 µg/mL)
[18]
  microsomal CLint: < 25 µL/min/mg
[19]
  fraction unbound: 0.4

## O=[N+]([O-])c1cccnc1Cl
[20]
  Activity: 236 nmol/min/mg
[15]
  metabolised at 0.5 h, 50 µM: 100%

## OC[C@@H]1CC[C@H](n2cnc3c(I)ncnc32)O1
[4]
  half-life: 28.2 h
[5]
  half-life: 2.97 h

## FC(F)=C(F)C(F)(F)F
[21]
  Activity: 3000 ppm

## COc1cccnc1Cl
[15]
  metabolised at 0.5 h, 50 µM: 17%

## C=C(F)[C@@](N)(CCCCN)C(=O)O
Lysine decarboxylase
  Ki: 470 µM

## FC(F)(F)Oc1ccccc1
[22]
  logP: 3.35

## FC(F)(F)c1cccnc1Cl
[15]
  metabolised at 0.5 h, 50 µM: 31%

## CC(F)(F)Oc1ccccc1
[22]
  logP: 2.87

## Cc1cccnc1Cl
[15]
  metabolised at 0.5 h, 50 µM: 14%

## Nc1nc2ccc(SC(F)(F)F)cc2s1
[16]
  logP: 3.6
[17]; pH 6.8 buffer
  solubility: 124 µM (≈ 31 µg/mL)
[18]
  microsomal CLint: 40.9 µL/min/mg
[19]
  fraction unbound: 0.24

## CC(Cl)C(=O)O (racemic)
[23]
  K: 1655 nmol/min

## CC(Br)C(=O)O (racemic)
[23]
  K: 2142 nmol/min

## CC(I)C(=O)O (racemic)
[23]
  K: 2532 nmol/min

## NC(C(=O)O)C(F)(F)F (racemic)
[14]
  Ratio: 10

## Clc1ccccn1 [2-CHLOROPYRIDINE]
[20]
  Activity: < 2 nmol/min/mg

## N[C@H]1C[C@@H](C(=O)O)CC1=C(F)F [CPP-115 FREE BASE]
[24]
  half-life: 20 h
[25]
  half-life: 1 to 2.3 h
[26]
  half-life: 1 to 2.3 h

## CCOc1ccc2ccc(=O)oc2c1 [ETHOXYCOUMARIN]
[27]
  Activity: 1.93 nmol/min

## N[C@H](CF)C(=O)O [FLUDALANINE]
[14]
  Ratio: 810

## N#Cc1c[nH]cc1-c1cccc2c1OC(F)(F)O2 [FLUDIOXONIL]
[28]
  dose excreted: 12%

## O=C(O)CF [FLUOROACETATE]
[29]
  LD: 0.05 mg/kg
[23]
  K: 172 nmol/min
[30]
  K: 210 nmol/min
[31]
  Activity: 3%

## FC(F)(F)C(Cl)Br (stereo unspecified) [HALOTHANE]
[32]
  dose excreted: 80%

## Nc1ncnc2c1ncn2[C@@H]1C=C(CO)[C@@H](O)[C@H]1O [NEOPLANOCIN A]
Adenosylhomocysteinase
  Ki: 0.00839 µM

## CCOc1ccc(NC(C)=O)cc1 [PHENACETIN]
[27]
  Activity: 3.48 nmol/min

## CCOc1ccccc1 [PHENETOLE]
[22]
  logP: 2.96

## O=[N+]([O-])c1cn2c(n1)OC[C@@H](OCc1ccc(OC(F)(F)F)cc1)C2 [PRETOMANID]
[16]
  logP: 2.2
[17]; buffer
  solubility: 8 µM (≈ 2.87 µg/mL)
[18]
  microsomal CLint: < 25 µL/min/mg
[19]
  PPB: 38%

## Nc1nc2ccc(OC(F)(F)F)cc2s1 [RILUZOLE]
[18]
  microsomal CLint: 38.9 µL/min/mg
[19]
  PPB: 85%

## FC(F)=C(F)F [TETRAFLUOROETHYLENE]
[21]
  Activity: 40000 ppm

## OCC(F)(F)F [TRIFLUOROETHANOL]
[33]
  LD50: 440 mg/kg and 210 mg/kg
